According to patent publication US20240166612A1, “ARYLTHIOETHER ACETAMIDE AND RELATED COMPOUNDS AND THEIR USE IN TREATING MEDICAL CONDITIONS” (X-Biotix Therapeutics, Inc., priority 2021, published 2024):
≈ marks a conversion by molar mass, not a printed value.

Legend:
[1] = molecular target: T1, recombinant LpxA enzyme (P. aeruginosa) (Pseudomonas aeruginosa, UniProt Q9X6P4); assay: LpxA in vitro substrate acylation assay with RapidFire MS analysis (P. aeruginosa); format: biochemical; details: P. aeruginosa enzyme 0.5 nM, PaACP-C10, 30 min
T1 sequence (Q9X6P4 1-258): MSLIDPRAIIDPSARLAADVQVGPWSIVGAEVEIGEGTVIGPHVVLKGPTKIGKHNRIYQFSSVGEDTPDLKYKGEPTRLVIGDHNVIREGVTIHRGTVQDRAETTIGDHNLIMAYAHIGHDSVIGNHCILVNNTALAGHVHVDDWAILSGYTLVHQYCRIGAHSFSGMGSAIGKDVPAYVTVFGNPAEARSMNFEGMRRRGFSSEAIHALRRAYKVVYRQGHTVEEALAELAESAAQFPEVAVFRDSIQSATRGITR

P. aeruginosa PAO397 = assay: Broth microdilution MIC, P. aeruginosa PAO397; format: cell-based; details: Pseudomonas aeruginosa, PAO397, 18 h, read-out: PAO397 KO MIC
[2] = tested on: Wild-type P. aeruginosa PAO1; assay: Broth microdilution MIC, wild-type P. aeruginosa PAO1; format: cell-based; details: Pseudomonas aeruginosa; wild-type P. aeruginosa PAO1, 37° C., 18 h; read-out: PAO1 WT MIC
[3] = molecular target: recombinant LpxA enzyme (E. coli) (Escherichia coli, UniProt P0A722); assay: LpxA in vitro substrate acylation assay with RapidFire MS analysis (E. coli); format: biochemical
Sequence of recombinant LpxA enzyme (E. coli) (P0A722 whole entry): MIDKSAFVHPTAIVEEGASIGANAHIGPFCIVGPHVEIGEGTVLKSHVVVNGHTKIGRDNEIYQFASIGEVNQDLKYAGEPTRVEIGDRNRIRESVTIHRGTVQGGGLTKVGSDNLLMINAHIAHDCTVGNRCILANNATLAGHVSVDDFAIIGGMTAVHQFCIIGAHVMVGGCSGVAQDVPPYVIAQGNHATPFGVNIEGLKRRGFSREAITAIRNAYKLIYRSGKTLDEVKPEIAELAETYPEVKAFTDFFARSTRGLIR
Protocol: Exemplary compounds from the above Examples were tested for ability to inhibit LpxA activity using an in vitro substrate acylation assay with RapidFire™ MS analysis. Assay procedures and results are described below.
Reactions were carried out in a final volume of 30 μL with 25 mM HEPES (pH 7.3), 150 mM NaCl, 2 mM DTT, 0.01% BSA, 5 μM UDP-GlcNac, recombinant LpxA enzyme (0.5 nM P. aeruginosa or 1.0 nM E. coli, both produced at Evotec), 0.5 μM acyl-transfer reagent (decanoyl P. aeruginosa acyl-carrier protein [PaACP-C10] or myristoyl E. coli acyl-carrier protein [EcACP-C1-4], both produced at Evotec), and 1% DMSO containing test compound. After 30 min incubation at room temperature, reactions were stopped by addition of 30 μL of 10% TCA in water.
Samples were centrifuged (4350 rpm, 4° C., 5 min), and then subjected to RapidFire™ MS analysis on an Agilent RapidFire 300 coupled to an Agilent 6460 triple-quadrupole mass spectrometer. Analytes were retained on a C4 (type A) cartridge using the following solvents and flow rates: • Pump 1—H2O with 5 mM NH4OAc at 2.0 mL/min, • Pump 2—MeOH/H2O (90/10) at 1.5 mL/min, • Pump 3—MeOH/H2O (90/10) at 0.5 mL/min, and • Pump 4—ACN (organic)/H2O (aqueous). Substrate and product of the reaction were detected in negative mode ESI-MS/MS by MRM (multiple reaction monitoring) of transitions 606.0/385.0 (UDP-GlcNAc substrate) and 776.2/385.0 (UDP-3-O—(R-3-hydroxydecanoyl)-GlcNAc product, for P. aeruginosa LpxA assay) or 832.2/385.0 (UDP-3-O—(R-3-hydroxymyristoyl)-GlcNAc product, for E. coli LpxA assay).
For IC50 determinations, peak areas of the substrate and product were compared to compute the proportion of product formed by the LpxA enzyme at each compound concentration.

P. aeruginosa LESB58 = assay: Broth microdilution MIC, P. aeruginosa LESB58; format: cell-based; details: Pseudomonas aeruginosa; P. aeruginosa LESB58 clinical isolate, colistin-resistant, 37° C., 18 h
[4] = tested on: P. aeruginosa PAO1 ΔmexABoprM; assay: Broth microdilution MIC, P. aeruginosa PAO1 ΔmexABoprM; format: cell-based; details: Pseudomonas aeruginosa, PAO1, 18 h, read-out: PAO1 KO MIC
Protocol: Exemplary compounds from the above Examples were tested to determine their minimum inhibitory concentration (MIC) for exemplary strains of Escherichia and Pseudomonas bacteria using broth microdilution methods. Assay procedures and results are described below.
Broth microdilution assays were conducted according to Clinical and Laboratory Standards Institute guidelines (CLSI, M07-A^11: Clinical and Laboratory Standards Institute. Methods for Dilution Antimicrobial Susceptibility Tests for Bacteria that Grow Aerobically; Approved Standard-11th Edition. Wayne, PA: CLSI, 2018). Briefly, bacterial suspensions were adjusted to a density equivalent to a 0.5 McFarland standard and diluted in sterile, cation-adjusted Mueller-Hinton broth (Beckton Dickinson) to yield a final inoculum between 2×10^5 and 8×10^5 colony-forming units (CFU)/mL. An inoculum volume of 98 μL was added to wells containing 2 μL of 2-fold serial dilutions of drug (prepared in DMSO). All inoculated microdilution trays were incubated in ambient air at 37° C. for 18 h. […] Performance of the assay was monitored by the use of laboratory quality-control strains (S. aureus ATCC 29213 and P. aeruginosa ATCC 27853) and levofloxacin, a compound with a defined MIC spectrum, in accordance with CLSI guidelines (CLSI, M100Ed29: Clinical and Laboratory Standards Institute. Performance Standards for Antimicrobial Susceptibility Testing, 29th Edition. Wayne, PA: CLSI, 2018).
Multiple enterobacteriaceae strains were tested, including both wild-type strains and multi-drug resistance pump deficient mutants. Specific strains tested included the following: • Wild-type P. aeruginosa PAO1, • P. aeruginosa PAO1 ΔmexABoprM—Disabled multi-drug efflux system Δ(MexAB-OprM), • P. aeruginosa PAO397—PAO1Δ(mexAB-oprM) Δ(mexCD-oprJ) Δ(mexEF-oprN) Δ(mexJK) Δ(mexXY) ΔopmH, • P. aeruginosa LESB58—Clinical isolate; colistin-resistant, isolated in the United Kingdom in 1988 from a patient with cystic fibrosis • E. coli JW0452-3 (BW25113 JacrA::kan)—Disabled multi-drug efflux system (AcrAB-TolC).
Experimental results are provided in Table 11, which provides MIC values for wild-type P. aeruginosa PAO1 (“PAO1 WT MIC”), P. aeruginosa PAO ΔmexABoprM (“PAO1 KO MIC”), P. aeruginosa PAO397 (“PAO397 KO MIC”), P. aeruginosa LESB58 (“LESB58”), and E. coli JW0452-3 (BW25113 JacrA::kan) (“E. coli KO MIC”).

Row | Compound | IC50 [1] | MIC (P. aeruginosa PAO397) | MIC [2] | IC50 [3] | MIC (P. aeruginosa LESB58) | MIC [4]
1 | N#Cc1ccc(CN(CC(=O)N2CCNCC2)C(=O)CSc2ccccc2Cl)cc1 [Compound No. 3] | > 1000 nM | 16 to 64 µg/mL (≈ 36.1 to 144 µM) | > 64 µg/mL | > 20000 nM | – | –
2 | CCc1ccccc1SCC(=O)N(Cc1ccc(C#N)nc1)Cc1nnc(N)o1 [Compound No. 7, N-[(5-Amino-1,3,4-oxadiazol-2-yl)methyl]-N-[(6-cyano-3-pyridyl)methyl]-2-(2-ethylphenyl)sulfanyl-acetamide] | < 20 nM | < 1 µg/mL | > 64 µg/mL | – | 16 to 64 µg/mL (≈ 39.2 to 157 µM) | 1 to 16 µg/mL (≈ 2.45 to 39.2 µM)
3 | N#Cc1ccc(CN(C(=O)CSc2ccccc2Cl)[C@@H](CO)c2nnc(N)o2)cn1 [Compound No. 8, 2-(2-Chlorophenyl)sulfanyl-N-[(6-cyano-3-pyridyl)methyl]-N-[(1S)-1-(5-amino-1,3,4-oxadiazol-2-yl)-2-hydroxy-ethyl]acetamide] | < 20 nM | < 1 µg/mL | > 64 µg/mL | > 20000 nM | – | 1 to 16 µg/mL (≈ 2.25 to 36 µM)
4 | Nc1nnc(CN(Cc2ccc(OC3CCOCC3)cc2)C(=O)CSc2ccccc2Cl)o1 [Compound No. 11] | 100 to 1000 nM | < 1 µg/mL | – | > 20000 nM | – | 1 to 16 µg/mL (≈ 2.05 to 32.7 µM)
5 | N#Cc1ccc(CN(Cc2nnc(N)o2)C(=O)CSc2cc(F)cc(F)c2Cl)cn1 [Compound No. 21, N-[(5-Amino-1,3,4-oxadiazol-2-yl)methyl]-2-(2-chloro-3,5-difluoro-phenyl)sulfanyl-N-[(6-cyano-3-pyridyl)methyl]acetamide] | < 20 nM | < 1 µg/mL | 16 to 64 µg/mL (≈ 35.5 to 142 µM) | – | 16 to 64 µg/mL (≈ 35.5 to 142 µM) | 1 to 16 µg/mL (≈ 2.22 to 35.5 µM)
6 | N#Cc1ccc(CN(Cc2nnc(N)o2)C(=O)CSc2ccccc2Cl)cc1 [compound 9] | – | < 1 µg/mL | 16 to 64 µg/mL (≈ 38.7 to 155 µM) | > 20000 nM | – | 1 to 16 µg/mL (≈ 2.42 to 38.7 µM)
7 | N#Cc1ccc(CN(Cc2nnc(N)o2)C(=O)CCc2ccccc2Cl)cn1 [compound 16] | 100 to 1000 nM | 1 to 16 µg/mL (≈ 2.52 to 40.3 µM) | > 64 µg/mL | > 20000 nM | – | 16 to 64 µg/mL (≈ 40.3 to 161 µM)
8 | CCc1ccccc1OCC(=O)N(Cc1ccc(C#N)nc1)Cc1nnc(N)o1 [compound 19] | 20 to 100 nM | < 1 µg/mL | > 64 µg/mL | – | 16 to 64 µg/mL (≈ 40.8 to 163 µM) | 1 to 16 µg/mL (≈ 2.55 to 40.8 µM)
9 | Nc1nnc(CN(Cc2ccc(S(N)(=O)=O)cc2F)C(=O)CSc2cc(F)ccc2Cl)o1 [compound 24] | 20 to 100 nM | < 1 µg/mL | > 64 µg/mL | – | 16 to 64 µg/mL (≈ 31.7 to 127 µM) | 1 to 16 µg/mL (≈ 1.98 to 31.7 µM)
10 | Nc1nnc(CN(Cc2ccc(S(N)(=O)=O)cc2F)C(=O)CSc2cc(F)cc(F)c2Cl)o1 [compound 27] | – | < 1 µg/mL | > 64 µg/mL | > 20000 nM | 1 to 16 µg/mL (≈ 1.92 to 30.7 µM) | < 1 µg/mL
11 | C[C@@H](Oc1ccccc1Cl)C(=O)N(Cc1ccc(C#N)cc1)Cc1nnc(N)o1 [compound 36] | 100 to 1000 nM | < 1 µg/mL | > 64 µg/mL | – | > 64 µg/mL | 16 to 64 µg/mL (≈ 38.8 to 155 µM)
12 | CC(=O)Nc1ccc(CN(Cc2nnc(N)o2)C(=O)CSc2ccccc2Cl)cc1 [compound 44] | 100 to 1000 nM | 16 to 64 µg/mL (≈ 35.9 to 144 µM) | > 64 µg/mL | > 20000 nM | – | –
13 | Cc1cc(C#N)ccc1CN(Cc1nnc(N)o1)C(=O)CSc1ccccc1Cl [compound 48] | 20 to 100 nM | < 1 µg/mL | > 64 µg/mL | – | – | 16 to 64 µg/mL (≈ 37.4 to 150 µM)
14 | N#Cc1ccc(CN(Cc2nnc(N)o2)C(=O)CSc2cc(F)ccc2Cl)cc1 [compound 51] | < 20 nM | < 1 µg/mL | > 64 µg/mL | – | 1 to 16 µg/mL (≈ 2.32 to 37 µM) | 1 to 16 µg/mL (≈ 2.32 to 37 µM)
15 | N#Cc1ccc(CN(Cc2nnn[nH]2)C(=O)CSc2ccccc2Cl)cc1 [compound 54] | – | 16 to 64 µg/mL (≈ 40.1 to 160 µM) | > 64 µg/mL | > 20000 nM | – | –
16 | N#Cc1ccc(CN(Cc2nnc(N)o2)C(=O)CSc2cccc(Cl)c2Cl)c(F)c1 [compound 57] | 20 to 100 nM | < 1 µg/mL | > 64 µg/mL | – | 16 to 64 µg/mL (≈ 34.3 to 137 µM) | 1 to 16 µg/mL (≈ 2.14 to 34.3 µM)
17 | N#Cc1ccc(CN(Cc2nnc(N)o2)C(=O)CSc2ncccc2Cl)c(F)c1 [compound 58] | 20 to 100 nM | < 1 µg/mL | > 64 µg/mL | – | > 64 µg/mL | 1 to 16 µg/mL (≈ 2.31 to 37 µM)
18 | Nc1nnc(CN(Cc2ccc(S(N)(=O)=O)cc2)C(=O)CSc2cc(F)cc(F)c2Cl)o1 [compound 59] | < 20 nM | < 1 µg/mL | > 64 µg/mL | > 20000 nM | 16 to 64 µg/mL (≈ 31.7 to 127 µM) | 1 to 16 µg/mL (≈ 1.98 to 31.7 µM)
19 | Cc1ncc(CN(Cc2ccc(C#N)cc2)C(=O)CSc2ccccc2Cl)o1 [compound 73] | 100 to 1000 nM | 1 to 16 µg/mL (≈ 2.43 to 38.8 µM) | > 64 µg/mL | > 20000 nM | – | –
20 | Cc1nnc(CN(Cc2ccc(C#N)cc2)C(=O)CSc2ccccc2Cl)[nH]1 [compound 74] | 100 to 1000 nM | 1 to 16 µg/mL (≈ 2.43 to 38.8 µM) | > 64 µg/mL | – | – | 16 to 64 µg/mL (≈ 38.8 to 155 µM)
21 | NC(=O)c1ccc(CN(Cc2nnc(N)o2)C(=O)CSc2ccccc2Cl)cc1 [compound 76] | 100 to 1000 nM | 1 to 16 µg/mL (≈ 2.32 to 37 µM) | > 64 µg/mL | > 20000 nM | – | 16 to 64 µg/mL (≈ 37 to 148 µM)
